Patent publication US11884671B2, “Purinone compounds and their use in treating cancer” (ASTRAZENECA AB, priority 2018, dated 2024)

Legend:
JAK3 = JAK3 (Homo sapiens (Human), UniProt P52333); test: JAK3 enzyme assay (Z'-LYTE); type: biochemical; conditions: 10 μM ATP, arithmetic mean of two or more experiments; for IC50: read-out: JAK3 enz pIC50 (converted)
Procedure: (§1) The inhibitory activity of compounds against AURKA, AURKB, JAK1, JAK2 and JAK3 was determined in Z′-LYTE® assays run by ThermoFisher Scientific as part of their SelectScreen® Biochemical Kinase Profiling Service. The Z′-LYTE® biochemical assay format employs a fluorescence-based, coupled-enzyme format and is based on the differential sensitivity of phosphorylated and non-phosphorylated peptides to proteolytic cleavage. The peptide substrate is labeled with two fluorophores—one at each end—that make up a FRET pair. In the primary reaction, the kinase transfers the gamma-phosphate of ATP to a single tyrosine, serine or threonine residue in a synthetic FRET-peptide. In the secondary reaction, a site-specific protease recognises and cleaves non-phosphorylated FRET-peptides. Phosphorylation of FRET-peptides suppresses cleavage by the Development Reagent. Cleavage disrupts FRET between the donor (i.e., coumarin) and acceptor (i.e., fluorescein) fluorophores on the FRET-peptide, whereas uncleaved, phosphorylated FRET-peptides maintain FRET. A ratiometric method, which calculates the ratio (the Emission Ratio) of donor emission to acceptor emission after excitation of the donor fluorophore at 400 nm, is used to quantitate reaction progress. Both cleaved and uncleaved FRET-peptides contribute to the fluorescence signals and therefore to the Emission Ratio. The extent of phosphorylation of the FRET-peptide can be calculated from the Emission Ratio.
(§2) 10 point three-fold dilution compound concentration-response curves, with a top concentration of 10 μM were generated from 10 mM stocks of compound solubilised in DMSO. All assays were performed in black, non-binding, low volume Corning 384-well plates (cat. #4514, Corning), in a total reaction volume of 10 μL and 1% (v/v) final DMSO concentration. […] The kinase reaction was then quenched by the addition of 5 μL of Development Reagent (ThermoFisher Scientific proprietary). […] IC50 values were calculated using XLfit software (IDBS Ltd, Surrey, UK), with the curve fit to model number 205 (sigmoidal dose-response model).
JAK3: The 2×JAK3/Tyr 06 (ThermoFisher Scientific proprietary) mixture was prepared in 50 mM HEPES pH 7.5. 0.01% BRIJ-35, 10 mM MgCl2, 1 mM EGTA. […] After the 1 hour Kinase Reaction incubation, 5 μL of a 1:128 dilution of Development Reagent was added.

AURKA (Aurora A) = AURKA (Aurora A) (Homo sapiens (Human), UniProt O14965); test: Aurora-A enzyme assay (Z'-LYTE); type: biochemical; conditions: 10 μM ATP, arithmetic mean of two or more experiments; for IC50: read-out: AurA enz pIC50 (converted)
Procedure: as §1, §2
Aurora A (AurA): The 2×AURKA (Aurora A)/Ser/Thr 01 (ThermoFisher Scientific proprietary) mixture was prepared in 50 mM HEPES pH 7.5, 0.01% BRIJ-35, 10 mM MgCl2, 1 mM EGTA. […] After the 1 hour Kinase Reaction incubation, 5 μL of a 1:4096 dilution of Development Reagent was added.

[1] = target: Full length human DNAPK protein (Homo sapiens (Human), UniProt P78527); test: DNAPK enzyme potency assay (DNA-PK enz), TR-FRET; type: biochemical; conditions: arithmetic mean of two or more experiments, 18 μM ATP; for IC50: read-out: DNA-PK enz pIC50 (converted)
Text: The following assays were used to measure the effects of the compounds described herein: a) DNAPK enzyme potency assay; b) DNAPK cellular potency assay. During the description of the assays, generally: • i. The following abbreviations have been used; DMSO=Dimethyl Sulphoxide; DTT=Dithiothreitol; EDTA=Ethylenediaminetetraacetic Acid, TR-FRET=Time Resolved Fluorescence Resonance Energy Transfer, ATP=Adenosine triphosphate, DTT=Dithiothreitol, DNA=Deoxyribonucleic acid, HEPES=(2-hydroxyethyl)-1-piperazineethanesulfonic acid • ii. […] Assay a): DNAPK Enzyme Potency Assay (DNA-PK Enz)
The inhibitory activity of compounds against DNAPK was determined by TR-FRET measuring a fluorescent labelled peptide substrate converting to a phosphorylated product. Fluorescently tagged peptide substrate were purchased from Thermo Fisher Scientific. 12 point half-log compound concentration-response curves, with a top concentration of 100 μM were generated from 10 mM stocks of compound solubilised in DMSO using an Echo 555 (Labcyte Inc., Sunnyvale, CA). All assays were preformed in white Greiner 1536 well low volume plates (Greiner Bio-One, UK), in a total reaction volume of 3 μL and 1% (v/v) final DMSO concentration. Enzymes and substrates were added separately to the compound plates and incubated at room temperature. The kinase reaction was then quenched by the addition of 3 μL of stop buffer. Stopped assay plates were read using a BMG Pherastar. IC50 values were calculated using a Genedata Screener® software (Genedata, Inc., Basel, Switzerland).
Full length human DNAPK protein was purified from HeLa cell extract by ion exchange. Initially DNAPK protein was incubated with compound for 30 minutes at room temperature in reaction buffer (50 mM Hepes pH 7.5, 0.01% Brij-35, 10 mM MgCl2, 1 mM EGTA, 1 mM DTT, […] Calf Thymus DNA). The reaction was then initiated by the addition of ATP and fluorescently tagged peptide substrate (Fluorescein-[…], Thermo Fisher Scientific). […] The reaction was incubated for a further hour and the plates were read on a BMG Pherastar.
Data was analysed and IC50 values were calculated using Genedata Screener® software (Genedata, Inc., Basel, Switzerland).

AURKB (Aurora B) = AURKB (Aurora B) (Homo sapiens (Human), UniProt Q96GD4); test: Aurora-B enzyme assay (Z'-LYTE); type: biochemical; conditions: 75 μM ATP, arithmetic mean of two or more experiments; for IC50: read-out: AurB enz pIC50 (converted)
Procedure: as §1, §2
Aurora B (AurB): The 2×AURKB (Aurora B)/Ser/Thr 01 (ThermoFisher Scientific proprietary) mixture was prepared in 50 mM HEPES pH 7.5, 0.01% BRIJ-35, 10 mM MgCl2, 1 mM EGTA. […] After the 1 hour Kinase Reaction incubation, 5 μL of a 1:4096 dilution of Development Reagent was added.

TTK = TTK (Homo sapiens (Human), UniProt P33981); test: TTK enzyme assay (LanthaScreen Eu Kinase Binding); conditions: arithmetic mean of two or more experiments; for IC50: read-out: TTK enz pIC50 (converted)
Procedure: The inhibitory activity of compounds against TTK was determined in a LanthaScreen® Eu Kinase Binding assay run by ThermoFisher Scientific as part of their SelectScreen® Biochemical Kinase Profiling Service. The LanthaScreen® Eu Kinase Binding assay format uses binding of an Alexa Fluor® conjugate or “tracer” to a kinase, which is detected by addition of a Eu-labeled anti-tag antibody. […] The degree of FRET measured in the assay is used to determine the binding of a compound.
10 point three-fold dilution compound concentration-response curves, with a top concentration of 10 μM were generated from 10 mM stocks of compound solubilised in DMSO. All assays were performed in white, low volume Greiner 384-well plates (cat. #784207, Greiner), in a total reaction volume of 16 μL and 1% (v/v) final DMSO concentration. […] Plates were then read using a fluorescence plate reader. IC50 values were calculated using XLfit software (IDBS Ltd, Surrey, UK), with the curve fit to model number 205 (sigmoidal dose-response model).

Chain of AURKA (Aurora A) (O14965 whole entry): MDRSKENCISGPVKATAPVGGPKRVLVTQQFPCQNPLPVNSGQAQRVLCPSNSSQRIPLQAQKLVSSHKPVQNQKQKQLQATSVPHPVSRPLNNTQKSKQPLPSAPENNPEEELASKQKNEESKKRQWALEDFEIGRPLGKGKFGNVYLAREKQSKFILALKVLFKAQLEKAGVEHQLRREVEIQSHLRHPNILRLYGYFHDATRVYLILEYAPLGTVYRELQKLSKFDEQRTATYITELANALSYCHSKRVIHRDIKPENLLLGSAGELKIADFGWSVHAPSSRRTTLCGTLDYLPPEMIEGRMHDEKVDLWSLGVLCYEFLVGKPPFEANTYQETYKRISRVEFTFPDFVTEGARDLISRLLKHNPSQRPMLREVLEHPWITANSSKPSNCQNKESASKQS
Chain of TTK (P33981 whole entry): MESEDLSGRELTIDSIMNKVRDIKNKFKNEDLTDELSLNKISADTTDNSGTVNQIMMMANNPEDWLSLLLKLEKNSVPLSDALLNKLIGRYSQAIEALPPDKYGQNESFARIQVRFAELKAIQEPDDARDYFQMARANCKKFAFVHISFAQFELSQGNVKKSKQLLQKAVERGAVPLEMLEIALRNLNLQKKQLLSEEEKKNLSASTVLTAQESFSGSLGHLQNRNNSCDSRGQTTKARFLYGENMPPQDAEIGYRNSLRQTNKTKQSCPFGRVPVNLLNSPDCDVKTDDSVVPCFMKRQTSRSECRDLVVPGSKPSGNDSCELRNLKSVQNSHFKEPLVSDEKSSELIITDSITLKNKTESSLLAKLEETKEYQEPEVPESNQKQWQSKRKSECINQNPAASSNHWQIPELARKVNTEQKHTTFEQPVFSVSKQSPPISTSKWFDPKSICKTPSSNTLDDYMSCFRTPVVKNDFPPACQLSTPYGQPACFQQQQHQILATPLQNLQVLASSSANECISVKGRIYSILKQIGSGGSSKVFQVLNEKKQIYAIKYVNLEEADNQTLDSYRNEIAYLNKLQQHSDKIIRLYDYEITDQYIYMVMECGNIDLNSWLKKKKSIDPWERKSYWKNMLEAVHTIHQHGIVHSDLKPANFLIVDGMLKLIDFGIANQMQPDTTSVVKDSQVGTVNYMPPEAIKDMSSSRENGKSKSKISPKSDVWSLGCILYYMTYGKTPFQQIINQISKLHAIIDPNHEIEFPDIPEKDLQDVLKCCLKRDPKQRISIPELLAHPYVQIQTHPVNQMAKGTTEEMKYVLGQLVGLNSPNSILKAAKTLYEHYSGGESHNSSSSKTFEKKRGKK
Chain of AURKB (Aurora B) (Q96GD4 whole entry): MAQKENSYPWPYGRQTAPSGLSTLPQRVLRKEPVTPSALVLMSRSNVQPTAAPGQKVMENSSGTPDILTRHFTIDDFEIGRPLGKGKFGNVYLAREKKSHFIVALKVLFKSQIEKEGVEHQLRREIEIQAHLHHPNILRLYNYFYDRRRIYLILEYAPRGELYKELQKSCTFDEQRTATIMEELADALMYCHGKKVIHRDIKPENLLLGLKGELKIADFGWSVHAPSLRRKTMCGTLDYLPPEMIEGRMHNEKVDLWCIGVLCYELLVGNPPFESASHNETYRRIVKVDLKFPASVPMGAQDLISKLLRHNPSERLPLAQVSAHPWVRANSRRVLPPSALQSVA
Chain of JAK3 (P52333 whole entry): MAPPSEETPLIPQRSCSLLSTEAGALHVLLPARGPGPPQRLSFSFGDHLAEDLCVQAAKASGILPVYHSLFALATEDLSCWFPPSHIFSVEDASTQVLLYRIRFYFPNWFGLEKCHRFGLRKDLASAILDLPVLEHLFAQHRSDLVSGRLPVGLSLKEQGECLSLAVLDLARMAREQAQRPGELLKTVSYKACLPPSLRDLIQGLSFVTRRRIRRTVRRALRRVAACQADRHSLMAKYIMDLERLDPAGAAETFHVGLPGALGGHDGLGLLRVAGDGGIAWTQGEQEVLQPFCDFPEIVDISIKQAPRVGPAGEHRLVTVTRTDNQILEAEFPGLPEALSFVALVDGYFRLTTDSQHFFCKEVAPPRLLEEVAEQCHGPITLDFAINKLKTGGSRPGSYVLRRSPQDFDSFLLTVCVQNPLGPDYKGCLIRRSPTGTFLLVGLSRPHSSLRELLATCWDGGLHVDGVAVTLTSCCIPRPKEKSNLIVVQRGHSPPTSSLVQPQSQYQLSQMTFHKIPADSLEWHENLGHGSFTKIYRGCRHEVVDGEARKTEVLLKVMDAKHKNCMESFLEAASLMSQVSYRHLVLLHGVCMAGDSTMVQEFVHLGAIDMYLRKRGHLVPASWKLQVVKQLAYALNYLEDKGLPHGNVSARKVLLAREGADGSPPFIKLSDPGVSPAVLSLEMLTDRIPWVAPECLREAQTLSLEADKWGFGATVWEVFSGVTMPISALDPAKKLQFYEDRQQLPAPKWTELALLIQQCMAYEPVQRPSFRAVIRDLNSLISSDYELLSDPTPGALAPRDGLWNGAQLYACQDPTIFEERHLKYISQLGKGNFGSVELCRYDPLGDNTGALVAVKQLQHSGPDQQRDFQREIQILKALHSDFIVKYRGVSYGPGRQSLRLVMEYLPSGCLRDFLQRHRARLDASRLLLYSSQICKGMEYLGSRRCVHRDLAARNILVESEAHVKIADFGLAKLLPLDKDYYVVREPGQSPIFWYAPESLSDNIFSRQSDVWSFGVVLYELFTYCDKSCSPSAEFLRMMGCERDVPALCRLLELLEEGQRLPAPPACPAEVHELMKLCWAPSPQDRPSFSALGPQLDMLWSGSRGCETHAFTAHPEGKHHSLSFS

Row | SMILES | JAK3 enz pIC50 (JAK3) | AurA enz pIC50 (AURKA (Aurora A)) | DNA-PK enz pIC50 [1] | AurB enz pIC50 (AURKB (Aurora B)) | TTK enz pIC50 (TTK) | IC50 (JAK3) | IC50 (AURKA (Aurora A)) | IC50 [1] | IC50 (AURKB (Aurora B)) | IC50 (TTK)
1 | CC(=O)N1CCC(n2c(=O)n(C)c3cnc(Nc4cc5ccnnc5cc4C)nc32)CC1 [Example 1, 9-(1-acetylpiperidin-4-yl)-7-methyl-2-((7-methylcinnolin-6-yl)amino)-7,9-dihydro-8H-purin-8-one] | <5 | <5 | 10.0 | <5 | 5.9 | – | – | – | – | –
2 | CC(=O)N1CCC(n2c(=O)n(C)c3cnc(Nc4cc5nccnc5cc4C)nc32)CC1 [Example 2, 9-(1-acetylpiperidin-4-yl)-7-methyl-2-((7-methylquinoxalin-6-yl)amino)-7,9-dihydro-8H-purin-8-one] | <5 | <5 | 9.8 | <5 | 5.8 | – | – | – | – | –
3 | CC(=O)N1CCC(n2c(=O)n(C)c3cnc(Nc4cc5cncnc5cc4C)nc32)CC1 [Example 3, 9-(1-acetylpiperidin-4-yl)-7-methyl-2-((7-methylquinazolin-6-yl)amino)-7,9-dihydro-8H-purin-8-one] | <5 | <5 | >10 | <5 | 5.4 | – | – | – | – | –
4 | CC(=O)N1CCC(n2c(=O)n(C)c3cnc(Nc4cc5ncc(C)nc5cc4C)nc32)CC1 [Example 4, 9-(1-acetylpiperidin-4-yl)-2-((2,7-dimethylquinoxalin-6-yl)amino)-7-methyl-7,9-dihydro-8H-purin-8-one] | <5 | <5 | 9.0 | <5 | 6.0 | – | – | – | – | –
5 | CC(=O)N1CCC(n2c(=O)n(C)c3cnc(Nc4cc5nc(C)cnc5cc4C)nc32)CC1 [Example 5, 9-(1-acetylpiperidin-4-yl)-2-((3,7-dimethylquinoxalin-6-yl)amino)-7-methyl-7,9-dihydro-8H-purin-8-one] | <5 | <5 | 9.1 | <5 | 5.3 | – | – | – | – | –
6 | Cc1cc2ncccc2cc1Nc1ncc2c(n1)n([C@H]1CC[C@H](O)CC1)c(=O)n2C [Example 6, 9-((1r,4r)-4-hydroxycyclohexyl)-7-methyl-2-((7-methylquinolin-6-yl)amino)-7,9-dihydro-8H-purin-8-one] | <5 | <5 | >10 | <5 | 7.2 | – | – | – | – | –
7 | Cc1cc2nnccc2cc1Nc1ncc2c(n1)n([C@H]1CC[C@H](O)CC1)c(=O)n2C [Example 7, 9-((1r,4r)-4-hydroxycyclohexyl)-7-methyl-2-((7-methylcinnolin-6-yl)amino)-7,9-dihydro-8H-purin-8-one] | <5 | <5 | >10 | <5 | 6.9 | – | – | – | – | –
8 | Cc1cc2nccc(C)c2cc1Nc1ncc2c(n1)n([C@H]1CC[C@H](O)CC1)c(=O)n2C [Example 8, 2-((4,7-dimethylquinolin-6-yl)amino)-9-((1r,4r)-4-hydroxycyclohexyl)-7-methyl-7,9-dihydro-8H-purin-8-one] | – | – | – | – | – | > 10 µM | > 10 µM | < 0.0001 µM | > 10 µM | 0.631 µM
9 | COc1ccnc2cc(C)c(Nc3ncc4c(n3)n([C@H]3CC[C@H](O)CC3)c(=O)n4C)cc12 [Example 9, 9-((1r,4r)-4-hydroxycyclohexyl)-2-((4-methoxy-7-methylquinolin-6-yl)amino)-7-methyl-7,9-dihydro-8H-purin-8-one] | <5 | <5.1 | >10 | <5 | 6.1 | – | – | – | – | –
10 | Cc1cc2nccnc2cc1Nc1ncc2c(n1)n([C@H]1CC[C@H](O)CC1)c(=O)n2C [Example 10, 9-((1r,4r)-4-hydroxycyclohexyl)-7-methyl-2-((7-methylquinoxalin-6-yl)amino)-7,9-dihydro-8H-purin-8-one] | – | – | – | – | – | > 10 µM | > 10 µM | < 0.0001 µM | > 10 µM | 0.398 µM
11 | Cc1cc2ncccc2cc1Nc1ncc2c(n1)n([C@H]1CC[C@@H](O)CC1)c(=O)n2C [Example 11, 9-((1s,4s)-4-hydroxycyclohexyl)-7-methyl-2-((7-methylquinolin-6-yl)amino)-7,9-dihydro-8H-purin-8-one] | – | – | – | – | – | > 10 µM | > 10 µM | 0.000158 µM | > 10 µM | 0.398 µM
12 | Cc1cc2nnccc2cc1Nc1ncc2c(n1)n([C@H]1CC[C@@H](O)CC1)c(=O)n2C [Example 12, 9-((1s,4s)-4-hydroxycyclohexyl)-7-methyl-2-((7-methylcinnolin-6-yl)amino)-7,9-dihydro-8H-purin-8-one] | <5 | <5 | >10 | <5 | 6.3 | – | – | – | – | –
